Reference: US6558694B2, “Zinc chloride unit dose packaging, applicator, and method of use in treating cancer and other skin diseases” (priority 1999, dated 2003)

Legend:
[1] = Mixing compatibility of additives with zinc chloride fixative paste; format: physicochemical; settings: for mixing with the zinc chloride fixative paste: additive in low concentration
Method: Podophyllin is a natural plant extract from the dried roots of either Podophyllum peltatum or P. emodi. It is an antimitotic agent used for many years in the treatment of human warts. (Fitzpatrick T B, et al. Dermatology in General Medicine, McGraw-Hill 1999, p. 2724.) Podophyllin is added at a 0.01% concentration, although a wide range of concentrations may be acceptable from 0.001% to 90% or greater, depending on the zinc chloride formulation employed.

[2] = inadvertent extravasation; far greater concentration and dosage than in the paste; tenderness, erythema, skin discoloration, swelling; cited from earlier work
HIV = settings: cited from earlier work

Row | mixing with the zinc chloride fixative paste [1] | paste consistency and viscosity after addition ([1]; paclitaxel in low concentration) | SMILES | local skin reactions [2] | inactivation of HIV (HIV)
1 | mixes completely and fully | remains unchanged | CC(=O)O[C@H]1C(=O)[C@@]2(C)[C@H]([C@H](OC(=O)c3ccccc3)[C@]3(O)C[C@H](OC(=O)[C@H](O)[C@@H](NC(=O)c4ccccc4)c4ccccc4)C(C)=C1C3(C)C)[C@]1(OC(C)=O)CO[C@@H]1C[C@@H]2O [paclitaxel] | mild | 
2 | completely compatible and mix fully |  | NC(N)=O [urea] |  | 
3 |  |  | [Cl-].[Cl-].[Zn+2] [zinc chloride] |  | inactivated
4 | completely compatible and mix fully |  | O=c1[nH]cc(F)c(=O)[nH]1 [fluorouracil] |  | 
